{"source": "paper PMC9250534", "about": "“Synthesis and direct assay of large macrocycle diversities by combinatorial late-stage modification at picomole scale” (Nature Communications, 2022)"}
{"target": "MDM2 (Homo sapiens, UniProt Q00987)", "sequence (Q00987 whole entry)": "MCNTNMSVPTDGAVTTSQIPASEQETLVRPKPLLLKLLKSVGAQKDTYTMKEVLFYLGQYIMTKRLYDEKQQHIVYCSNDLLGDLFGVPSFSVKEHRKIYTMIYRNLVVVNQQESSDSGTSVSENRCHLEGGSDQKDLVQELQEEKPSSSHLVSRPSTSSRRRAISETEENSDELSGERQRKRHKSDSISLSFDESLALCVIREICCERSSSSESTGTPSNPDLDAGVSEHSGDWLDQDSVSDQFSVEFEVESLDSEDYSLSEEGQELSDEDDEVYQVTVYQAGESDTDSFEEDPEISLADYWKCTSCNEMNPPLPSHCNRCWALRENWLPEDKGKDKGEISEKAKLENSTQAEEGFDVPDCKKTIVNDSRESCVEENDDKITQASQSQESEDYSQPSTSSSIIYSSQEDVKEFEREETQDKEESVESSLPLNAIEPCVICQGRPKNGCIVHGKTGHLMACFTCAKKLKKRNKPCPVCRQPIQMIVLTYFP", "assay": "MDM2 binding screen of Libraries 3 and 4: displacement of fluorescent probe F-M8 at 750 nM macrocycle", "conditions": "Panel b, Library 3: 63 scaffolds combinatorially acylated with 15 carboxylic acids at 30 picomole scale; displacement of fluorescent peptide probe; macrocycle 750 nM", "protocol": "(§1) The cyclic peptide scaffolds required for Libraries 3 and 4 were synthesized as described for those used in Library 2. Due to the presence of many N-methylated amino acids which are more difficult to couple, 200 mM HOAt was applied together with HATU. The scaffolds were diluted to 2 mM in DMSO, and 15 nL were transferred using acoustic dispensing, followed by 15 nL DMSO containing carboxylic acids (40 mM, 20 equiv.), HBTU (40 mM) and DABCO (40 mM). After 6 h reaction at room temperature, 370 nL of DMSO was added to each well, followed by 5 μL of 100 mM Tris-Cl pH 7.4 containing 0.01% v/v Tween20, for quenching overnight."}
{"smiles": "O=C1CCSSCCNC(=O)C(Cc2ccc3ccccc3c2)NC(=O)CN(CCNC(=O)C2COc3ccccc3O2)C(=O)C2(CC2)CN1", "note": "(mixture of isomers) [X-Amcp-N-Aeg-2-Nal + Acid 115]", "fraction of fluorescent probe displaced": 0.015}
{"smiles": "O=C(NC[C@@H]1NC(=O)[C@@H]2CN(CCO2)C(=O)CCSSCCNC(=O)[C@H](Cc2cccc3ccccc23)NC1=O)c1ccc(Cl)s1", "note": "[X-Cop-Dap-1-NaI + Acid 14]", "fraction of fluorescent probe displaced": 0.008}
{"smiles": "O=C1CCSSCCNC(=O)[C@H](Cc2c[nH]c3cc(Cl)ccc23)NC(=O)CN(CCNC(=O)c2ccc(Cl)cc2)C(=O)C2(CC2)CN1", "note": "[X-Amcp-N-Aeg-Cl-Trp + Acid 25]", "fraction of fluorescent probe displaced": -0.025}
{"smiles": "O=C1CCSSCCNC(=O)[C@H](Cc2c[nH]c3cc(Cl)ccc23)NC(=O)[C@@H](CNC(=O)c2ccc(Cl)cc2)NC(=O)C2(CC2)CN1", "note": "[X-Amcp-D-Dap-Cl-Trp + Acid 25]", "fraction of fluorescent probe displaced": 0.021}
{"smiles": "O=C(NCC1NC(=O)C2CN(CCO2)C(=O)CCSSCCNC(=O)C(Cc2ccc3ccccc3c2)NC1=O)c1ccc2ccccc2c1", "note": "[X-Cop-D-Dap-2-Nal + Acid 107]", "fraction of fluorescent probe displaced": 0.00455}
{"smiles": "CC(Oc1cccc(Cl)c1)C(=O)NCCN1CC(=O)N[C@H](Cc2c[nH]c3ccccc23)C(=O)NCCSSCCC(=O)NCC2(CC2)C1=O", "note": "(stereo partly drawn) [X-Amcp-N-Aeg-D-Trp + Acid 113]", "fraction of fluorescent probe displaced": 0.00133}
{"smiles": "CN1C(=O)CN(CCNC(=O)c2cccc(Oc3ccccc3)c2)C(=O)[C@H]2CCCN(C2)C(=O)CCSSCCNC(=O)[C@@H]1Cc1c[nH]c2ccccc12", "note": "[X-Nip-N-Aeg-NMe-Trp + Acid 111]", "fraction of fluorescent probe displaced": -0.012}
{"smiles": "O=C1CN(CCNC(=O)C2CC2c2ccccc2)C(=O)C2CN(CCO2)C(=O)CCSSCCNC(=O)C(Cc2ccc3ccccc3c2)N1", "note": "(stereo not drawn) [X-Cop-N-Aeg-2-Nal + Acid 105]", "fraction of fluorescent probe displaced": -0.015}
{"smiles": "Cn1cc(C[C@@H]2NC(=O)[C@H](CNC(=O)c3ccc(Cl)s3)NC(=O)[C@@H]3CN(CCO3)C(=O)CCSSCCNC2=O)c2ccccc21", "note": "[X-Cop-Dap-Me-Trp + Acid 14]", "fraction of fluorescent probe displaced": 0.00133}
{"smiles": "O=C(CCS(=O)(=O)c1ccccc1)NC[C@H]1NC(=O)[C@H]2CCCN(C2)C(=O)CCSSCCNC(=O)[C@H](Cc2cccc3ccccc23)NC1=O", "note": "[X-Nip-D-Dap-1-NaI + Acid 114]", "fraction of fluorescent probe displaced": -0.00533}
{"smiles": "O=C(/C=C/c1ccc(OCc2ccccc2)cc1)NC[C@@H]1NC(=O)[C@@H]2CN(CCO2)C(=O)CCSSCCNC(=O)[C@H](Cc2ccc3ccccc3c2)NC1=O", "note": "[X-Cop-Dap-2-Nal + Acid 110]", "fraction of fluorescent probe displaced": 0.035}
{"smiles": "O=C1CCSSCCNC(=O)[C@H](Cc2c[nH]c3ccccc23)NC(=O)[C@@H](CNC(=O)c2cccc(Oc3ccccc3)c2)NC(=O)C2(CC2)CN1", "note": "[X-Amcp-D-Dap-Trp + Acid 111]", "fraction of fluorescent probe displaced": 0.008}
{"smiles": "O=C(NC[C@@H]1NC(=O)[C@@H]2CN(CCO2)C(=O)CCSSCCNC(=O)[C@H](Cc2c[nH]c3ccccc23)NC1=O)c1ccc2ccccc2c1", "note": "[X-Cop-Dap-Trp + Acid 107]", "fraction of fluorescent probe displaced": 0.108}
{"smiles": "O=C(CCS(=O)(=O)c1ccccc1)NC[C@@H]1NC(=O)[C@@H]2CN(CCO2)C(=O)CCSSCCNC(=O)[C@H](Cc2ccc3ccccc3c2)NC1=O", "note": "[X-Cop-Dap-2-Nal + Acid 114]", "fraction of fluorescent probe displaced": -0.00533}
{"smiles": "O=C1CN(CCNC(=O)c2ccc(Cl)cc2)C(=O)[C@H]2CCCN(C2)C(=O)CCSSCCNC(=O)[C@H](Cc2ccc3ccccc3c2)N1", "note": "[X-Nip-N-Aeg-2-Nal + Acid 25]", "fraction of fluorescent probe displaced": 0.00133}
{"smiles": "O=C(/C=C/c1ccc2ccccc2c1)NC[C@@H]1NC(=O)[C@H]2CCCN(C2)C(=O)CCSSCCNC(=O)[C@H](Cc2ccc3ccccc3c2)NC1=O", "note": "[X-Nip-Dap-2-Nal + Acid 112]", "fraction of fluorescent probe displaced": 0.021}
{"smiles": "O=C(/C=C/c1ccncc1)NC[C@H]1NC(=O)[C@H]2CCCN(C2)C(=O)CCSSCCNC(=O)[C@H](Cc2c[nH]c3ccccc23)NC1=O", "note": "[X-Nip-D-Dap-Trp + Acid 106]", "fraction of fluorescent probe displaced": -0.002}
{"smiles": "CC(Oc1cccc(Cl)c1)C(=O)NCCN1CC(=O)N[C@@H](Cc2ccc3ccccc3c2)C(=O)NCCSSCCC(=O)NCC2(CC2)C1=O", "note": "(stereo partly drawn) [X-Amcp-N-Aeg-2-Nal + Acid 113]", "fraction of fluorescent probe displaced": 0.008}
{"smiles": "CN1C(=O)[C@H](CNC(=O)c2ccc3ccccc3c2)NC(=O)[C@H]2CCCN(C2)C(=O)CCSSCCNC(=O)[C@@H]1Cc1c[nH]c2ccccc12", "note": "[X-Nip-Dap-NMe-Trp + Acid 107]", "fraction of fluorescent probe displaced": 0.031}
{"smiles": "CN1C(=O)C(CNC(=O)C2CC2c2ccccc2)NC(=O)C2CN(CCO2)C(=O)CCSSCCNC(=O)C1Cc1c[nH]c2ccccc12", "note": "(stereo not drawn) [X-Cop-Dap-NMe-Trp + Acid 105]", "fraction of fluorescent probe displaced": 0.018}
{"smiles": "O=C1CCSSCCNC(=O)[C@H](Cc2c[nH]c3cc(Cl)ccc23)NC(=O)[C@@H](CNC(=O)c2ccc(Cl)s2)NC(=O)C2(CC2)CN1", "note": "[X-Amcp-D-Dap-Cl-Trp + Acid 14]", "fraction of fluorescent probe displaced": 0.008}
{"smiles": "Cn1cc(C[C@@H]2NC(=O)CN(CCNC(=O)CCS(=O)(=O)c3ccccc3)C(=O)[C@@H]3CN(CCO3)C(=O)CCSSCCNC2=O)c2ccccc21", "note": "[X-Cop-N-Aeg-Me-Trp + Acid 114]", "fraction of fluorescent probe displaced": -0.012}
{"smiles": "Cn1cc(C[C@@H]2NC(=O)[C@@H](CNC(=O)C3COc4ccccc4O3)NC(=O)C3(CC3)CNC(=O)CCSSCCNC2=O)c2ccccc21", "note": "(stereo partly drawn) [X-Amcp-D-Dap-Me-Trp + Acid 115]", "fraction of fluorescent probe displaced": 0.015}
{"smiles": "O=C(CCS(=O)(=O)c1ccccc1)NCCN1CC(=O)N[C@@H](Cc2cccc3ccccc23)C(=O)NCCSSCCC(=O)N2CCC[C@@H](C2)C1=O", "note": "[X-Nip-N-Aeg-1-NaI + Acid 114]", "fraction of fluorescent probe displaced": 0.008}
{"smiles": "CN1C(=O)[C@H](CNC(=O)c2ccc(Cl)cc2)NC(=O)[C@H]2CCCN(C2)C(=O)CCSSCCNC(=O)[C@@H]1Cc1c[nH]c2ccccc12", "note": "[X-Nip-Dap-NMe-Trp + Acid 25]", "fraction of fluorescent probe displaced": 0.00133}
{"smiles": "O=C(NC[C@H]1NC(=O)[C@@H]2CN(CCO2)C(=O)CCSSCCNC(=O)[C@H](Cc2c[nH]c3ccccc23)NC1=O)c1cccc(Oc2ccccc2)c1", "note": "[X-Cop-D-Dap-Trp + Acid 111]", "fraction of fluorescent probe displaced": 0.015}
{"smiles": "O=C(CCS(=O)(=O)c1ccccc1)NC[C@@H]1NC(=O)[C@@H]2CN(CCO2)C(=O)CCSSCCNC(=O)[C@@H](Cc2c[nH]c3ccccc23)NC1=O", "note": "[X-Cop-Dap-D-Trp + Acid 114]", "fraction of fluorescent probe displaced": 0.021}
{"smiles": "O=C(/C=C/c1ccc2ccccc2c1)NCCN1CC(=O)N[C@@H](Cc2cccc3ccccc23)C(=O)NCCSSCCC(=O)N2CCC[C@@H](C2)C1=O", "note": "[X-Nip-N-Aeg-1-NaI + Acid 112]", "fraction of fluorescent probe displaced": 0.015}
{"smiles": "Cn1cc(C[C@@H]2NC(=O)[C@H](CNC(=O)c3ccc(Cl)s3)NC(=O)C3(CC3)CNC(=O)CCSSCCNC2=O)c2ccccc21", "note": "[X-Amcp-Dap-Me-Trp + Acid 14]", "fraction of fluorescent probe displaced": 0.008}
{"smiles": "O=C1CCSSCCNC(=O)[C@H](Cc2c[nH]c3cc(Cl)ccc23)NC(=O)CN(CCNC(=O)c2cccc(Oc3ccccc3)c2)C(=O)C2(CC2)CN1", "note": "[X-Amcp-N-Aeg-Cl-Trp + Acid 111]", "fraction of fluorescent probe displaced": -0.00533}
{"smiles": "CC(Oc1cccc(Cl)c1)C(=O)NC[C@@H]1NC(=O)[C@H]2CCCN(C2)C(=O)CCSSCCNC(=O)[C@H](Cc2cccc3ccccc23)NC1=O", "note": "(stereo partly drawn) [X-Nip-Dap-1-NaI + Acid 113]", "fraction of fluorescent probe displaced": -0.019}
{"smiles": "CN1C(=O)[C@H](CNC(=O)c2ccc(Cl)s2)NC(=O)C2(CC2)CNC(=O)CCSSCCNC(=O)[C@@H]1Cc1c[nH]c2ccccc12", "note": "[X-Amcp-Dap-NMe-Trp + Acid 14]", "fraction of fluorescent probe displaced": -0.025}
{"smiles": "CN1C(=O)[C@@H](CNC(=O)c2ccc(Cl)s2)NC(=O)[C@@H]2CN(CCO2)C(=O)CCSSCCNC(=O)[C@@H]1Cc1c[nH]c2ccccc12", "note": "[X-Cop-D-Dap-NMe-Trp + Acid 14]", "fraction of fluorescent probe displaced": -0.019}
{"smiles": "CN1C(=O)C(CNC(=O)C2COc3ccccc3O2)NC(=O)C2(CC2)CNC(=O)CCSSCCNC(=O)C1Cc1c[nH]c2ccccc12", "note": "(mixture of isomers) [X-Amcp-D-Dap-NMe-Trp + Acid 115]", "fraction of fluorescent probe displaced": 0.015}
{"smiles": "O=C(/C=C/c1ccc(OCc2ccccc2)cc1)NCCN1CC(=O)N[C@@H](Cc2c[nH]c3ccccc23)C(=O)NCCSSCCC(=O)NCC2(CC2)C1=O", "note": "[X-Amcp-N-Aeg-Trp + Acid 110]", "fraction of fluorescent probe displaced": 0.015}
{"target": "MDM2 (Homo sapiens, UniProt Q00987)", "assay": "MDM2 binding screen of Libraries 3 and 4: displacement of fluorescent probe F-M8 at 750 nM macrocycle", "conditions": "Panel c, Library 4: best nine scaffolds and 15 additional carboxylic acids; displacement of fluorescent probe", "protocol": "as §1"}
{"smiles": "O=C(/C=C/c1cccc(Cl)c1)NC[C@@H]1NC(=O)[C@H]2CCCN(C2)C(=O)CCSSCCNC(=O)[C@H](Cc2c[nH]c3ccccc23)NC1=O", "note": "[X-Nip-Dap-Trp + Acid 121]", "fraction of fluorescent probe displaced": 0.468}
{"smiles": "O=C(/C=C/c1ccc(Cl)c(Cl)c1)NC[C@@H]1NC(=O)C2(CC2)CNC(=O)CCSSCCNC(=O)[C@H](Cc2c[nH]c3ccccc23)NC1=O", "note": "[X-Amcp-Dap-Trp + Acid 119]", "fraction of fluorescent probe displaced": 0.069}
{"smiles": "O=C(/C=C/c1ccc(F)cc1)NC[C@@H]1NC(=O)[C@H]2CCCN(C2)C(=O)CCSSCCNC(=O)[C@H](Cc2c[nH]c3cc(Cl)ccc23)NC1=O", "note": "[X-Nip-Dap-Cl-Trp + Acid 116]", "fraction of fluorescent probe displaced": 0.289}
{"smiles": "CCOc1ccc(/C=C/C(=O)NC[C@@H]2NC(=O)[C@@H]3CN(CCO3)C(=O)CCSSCCNC(=O)[C@H](Cc3c[nH]c4cc(Cl)ccc34)NC2=O)cc1", "note": "[X-Cop-Dap-Cl-Trp + Acid 117]", "fraction of fluorescent probe displaced": 0.175}
{"smiles": "O=C(NC[C@@H]1NC(=O)[C@H]2CCCN(C2)C(=O)CCSSCCNC(=O)[C@H](Cc2cccc3ccccc23)NC1=O)c1cnc2ccccc2n1", "note": "[X-Nip-Dap-1-NaI + Acid 130]", "fraction of fluorescent probe displaced": 0.020}
{"smiles": "CCOc1ccc(/C=C/C(=O)NC[C@@H]2NC(=O)[C@H]3CCCN(C3)C(=O)CCSSCCNC(=O)[C@H](Cc3cccc4ccccc34)NC2=O)cc1", "note": "[X-Nip-Dap-1-NaI + Acid 117]", "fraction of fluorescent probe displaced": 0.069}
{"smiles": "O=C(/C=C/c1ccc(Cl)c(Cl)c1)NC[C@@H]1NC(=O)[C@H]2CCCN(C2)C(=O)CCSSCCNC(=O)[C@H](Cc2c[nH]c3ccccc23)NC1=O", "note": "[X-Nip-Dap-Trp + Acid 119]", "fraction of fluorescent probe displaced": 0.435}
